IC50 data for 17 compounds are collected here from BindingDB's records for doi:10.1016/S0960-894X(97)00247-3 (1997).

Structures are written as SMILES.

One assay has as its target Phospholipase A2, membrane associated (group IIA). The assay can be described thus: Compound was tested for the Inhibition of human Secretory phospholipase A 2 acyl hydrolysis using a membrane assay; Inactive.
As a reminder, the IC50 is the point on the concentration scale where inhibition reaches its midpoint. Take `CCCCCCCCCCCCCCCCCCOCC(CCCCO)NC(C)=O` (configuration not stated) [N-(5-Hydroxy-1-octadecyloxymethyl-pentyl)-acetamide]: the IC50 was more than 200 µM.

Target in another assay: not listed separately
Put plainly: Compound was tested for the Inhibition of human Secretory phospholipase A 2 acyl hydrolysis using a membrane assay; inactive.
`CCCCCCCCCCCCCCCCCCOCC(CCC1CO1)NC(C)=O` (configuration not stated) [N-(1-Octadecyloxymethyl-3-oxiranyl-propyl)-acetamide] gave an IC50 of more than 200 µM.
Same read-out and setting: the value for `CCCCCCCCCCCCCCCCCCOCC(CCSc1ccc(C)cc1)NC(C)=O` (configuration not stated) [N-(1-Octadecyloxymethyl-3-p-tolylsulfanyl-propyl)-acetamide] was more than 200 µM.
The same measure, in the same setting: the value for `CCCCCCCCCCCCCCCCCCOCC(CCC(C)=O)NC(C)=O` (configuration not stated) [N-(1-Octadecyloxymethyl-4-oxo-pentyl)-acetamide] was more than 200 µM.
The compound `CCCCCCCCCCCCCCCCCCOCC(CCCO)NC(C)=O` (configuration not stated) [N-(4-Hydroxy-1-octadecyloxymethyl-butyl)-acetamide] came in with an IC50 of more than 200 µM.
As to `CCCCCCCCCCCCCCCCCCOCC(CNS(=O)(=O)c1ccc(C)cc1)NC(C)=O` (configuration not stated) [N-[1-Octadecyloxymethyl-2-(toluene-4-sulfonylamino)-ethyl]-acetamide], the IC50 is more than 200 µM.
Compound `CCCCCCCCCCCCCCCCCCOCC(CC[S+]([O-])c1ccc(C)cc1)NC(C)=O` (configuration not stated) [N-{1-(Octadecyloxymethyl)-3-[(4-methylphenyl)sulfinyl]propyl}acetamide] registered an IC50 of more than 200 µM.

Target in another assay: not listed separately
The assay is described as above. This is another data set of the same source.
In the case of `CCCCCCCCOC[C@H](CO[P@](=O)(O)OCCN)O[P@@](=O)(O)CCCCCCC`, half-maximal inhibition (IC50) required 1 µM.
The same measure, in the same setting: the result for `C=CCCC(COCCCCCCCCCCCCCCCCCC)NC(C)=O` (configuration not stated) [N-(1-Octadecyloxymethyl-pent-4-enyl)-acetamide] reads 8 µM.
Turning to `CCCCCCCCCCCCCCCCCCOCC(CCCC)NC(C)=O` (configuration not stated) [N-(1-Octadecyloxymethyl-pentyl)-acetamide], the 50% inhibitory concentration (IC50) is 60 µM.
Same read-out and setting: the result for `CCCCCCCCCCCCCCCCCCOCC(CCC(O)CO)NC(C)=O` (configuration not stated) [N-(4,5-Dihydroxy-1-octadecyloxymethyl-pentyl)-acetamide] reads 8.9 µM.
Take `CCCCCCCCCCCCCCCCCCOCC(COCC(F)(F)F)NC(C)=O` (configuration not stated) [N-[1-Octadecyloxymethyl-2-(2,2,2-trifluoro-ethoxy)-ethyl]-acetamide]: the IC50 was determined as 100 µM.
On the same count and under the same terms, the result for `CCCCCCCCCCCCCCCCCCOCC(CCc1nnn[nH]1)NC(C)=O` (configuration not stated) [N-[1-Octadecyloxymethyl-3-(1H-tetrazol-5-yl)-propyl]-acetamide] reads 0.57 µM.
Still for that read-out and setting: the result for `CCCCCCCCCCCCCCCCCCOCC(CCS(=O)(=O)c1ccc(C)cc1)NC(C)=O` (configuration not stated) [N-[1-Octadecyloxymethyl-3-(toluene-4-sulfonyl)-propyl]-acetamide] reads 50 µM.
Same read-out and setting: the value for `CCCCCCCCCCCCCCCCCCOCC(CC[S+](C)[O-])NC(C)=O` (configuration not stated) [N-[1-[(Octadecyloxy)methyl]-3-(methylsulfinyl)propyl]acetamide] was 60 µM; that for `CCCCCCCCCCCCC(=O)NC(COCCC)COP(=O)(O)OCCO` (configuration not stated) [Phosphoric acid 2-hydroxy-ethyl ester 3-propoxy-2-tridecanoylamino-propyl ester] was 1 µM; that for `CCCCCCCCCCCCC(=O)NC(CCCC)CCc1nnn[nH]1` (configuration not stated) [Tridecanoic acid {1-[2-(1H-tetrazol-5-yl)-ethyl]-pentyl}-amide] was 6.6 µM.
